Data as given in patent EP1082127B1 (WARNER-LAMBERT COMPANY LLC, priority 1998, dated 1999).

What was measured:
ICE [1] = molecular target: T1, ICE (Homo sapiens, UniProt P29466); assay: ICE inhibition, Ki determination (fluorogenic substrate Ac-Tyr-Val-Ala-Asp-AMC); assay type: biochemical; settings: 15 µM Ac-Tyr-Val-Ala-Asp-AMC, 0.5 nM enzyme, 30°C, reversible competitive model
T1 sequence (P29466 120-297 limits assumed): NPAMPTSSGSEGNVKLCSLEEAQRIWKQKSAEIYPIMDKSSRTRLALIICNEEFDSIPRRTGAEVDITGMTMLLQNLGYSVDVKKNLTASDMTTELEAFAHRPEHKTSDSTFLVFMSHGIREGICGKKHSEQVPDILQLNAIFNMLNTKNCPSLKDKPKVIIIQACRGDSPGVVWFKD
T1 sequence (P29466 317-404 limits assumed): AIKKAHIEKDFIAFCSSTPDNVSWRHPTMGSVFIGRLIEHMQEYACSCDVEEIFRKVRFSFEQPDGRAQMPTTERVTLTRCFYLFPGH
Experimental: Serial dilutions of each compound of the invention are prepared using an initial 8-fold dilution of a DMSO stock into HGE (100 mM HEPES, 20% glycerol v/v, 0.5 mM EDTA), followed by seven serial 2-fold dilutions into HGE + 12.5% DMSO. Ten microliters of diluted stocks or of vehicle (HGE + 12.5% DMSO) are placed in triplicate onto a 96-well microtiter plate. Enzyme is diluted into assay buffer (HGE, 5 mM DTT, 15 µM Ac-Tyr-Val-Ala-Asp-AMC; 0.5 nM final enzyme concentration, pre-warmed to 30°C), and this reaction mixture is added to the plate at 90 µL/well. Substrate hydrolysis is monitored for 300 seconds at 30°C using 385 and 460 nm excitation and emission filters, respectively. Triplicate curves are averaged, and slopes are evaluated by linear regression. To evaluate Ki, plots of percent inhibition vs inhibitor concentration are fit by non-linear regression to a reversible, competitive model: [formula] where the competition factor is (1 + [S]/KM) = 2.

ICE [2] = molecular target: T1, ICE; assay: ICE Colorimetric Dose-Response (IC50) Assay; assay type: biochemical; settings: 60 minutes preincubation, 50 µM Ac-Tyr-Val-Ala-Asp-pNA, 25°C
Experimental: (§1) Diluted inhibitor stocks are prepared by two-fold serial dilution from a primary stock whose concentration is selected (based on screening results or on prior attempts at IC50 evaluation) to achieve approximately 95% inhibition in the most concentrated well. Aliquots of each dilution are transferred to a microtitre plate in triplicate.
(§2) ICE enzyme is diluted to approximately 24 nM in HGE buffer (100 mM Hepes pH 7.5, 0.5 mM EDTA, 20% glycerol, 0.1% Bovine Serum Albumin (BSA), and activated by adding dithiothreitol (DTT) to a final concentration of 5 mM. The activated enzyme is then aliquoted into wells containing inhibitor or vehicle, and the plate is preincubated for 60 minutes at ambient temperature. Substrate (Ac-Tyr-Val-Ala-Asp-pNA) is added to each well to a final concentration of 50 µM, and plates are placed in the microtitre plate-reader thermostated to 25°C. Beginning 5 minutes after addition of substrate, absorbance (405 nm) of wells is monitored for 1 hour, and activity is calculated as the mean rate of change in absorbance during this interval.

[3] = system: IL-1β production in human peripheral blood mononuclear cells (PBMCs); assay: PBMC Cellular Assay - IC50 Determinations (LPS-stimulated IL-1β production, ELISA); assay type: cell-based; settings: human PBMCs stimulated overnight with 10 ng/mL LPS, mature IL-1β by ELISA
Description: Further evidence that compounds of Formula I are inhibitors of ICE is provided by their ability to inhibit IL-1β production in human peripheral blood mononuclear cells (PBMCs) as described herein. PBMCs are isolated from heparinized blood by centrifugation over a ficoll cushion, then washed three times with phosphate-buffered saline. PBMCs are suspended in a medium containing RPMI 1640 with glutamine, penicillin, streptomycin, and 2% human AB serum, then plated at 10^6 cells per well in 96-well flat bottom plates. PBMCs are stimulated overnight with 10 ng/mL of lipopolysaccharide (LPS, E. coli strain 0111:B4; Calbiochem) in the presence or absence of a compound of Formula I. Medium is harvested, and the level of mature IL-1β was determined using an ELISA kit from R&D Systems. Cells were cultured for an additional 4 hours in the presence of 3-(4,5-dimethylthiazol-2-yl)-2,5-diphenyltetrazolium bromide (MTT) to determine viability.

Ich-2 enzyme = molecular target: T2, Ich-2 enzyme (Homo sapiens, UniProt P49662); assay: Ich-2 Colorimetric Dose-Response (IC50) Assay; assay type: biochemical; settings: enzyme 64 nM, 60 µM Ac-Leu-Glu-Val-Asp-pNA; read-out: ICH2 IC50 (Caspase 4)
T2 sequence (P49662 81-270 limits assumed): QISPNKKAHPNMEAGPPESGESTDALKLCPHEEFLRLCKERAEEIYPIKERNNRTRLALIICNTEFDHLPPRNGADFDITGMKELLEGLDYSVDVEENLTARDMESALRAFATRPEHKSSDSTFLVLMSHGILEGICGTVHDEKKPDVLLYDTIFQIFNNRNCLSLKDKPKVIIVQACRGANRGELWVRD
T2 sequence (P49662 290-377 limits assumed): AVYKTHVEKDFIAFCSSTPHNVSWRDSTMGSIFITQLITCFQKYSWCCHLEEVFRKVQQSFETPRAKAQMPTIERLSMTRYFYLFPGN
Experimental: as §1, §2
Inhibition of Ich-2 enzyme is assayed as described above for ICE, except that enzyme is used at 64 nM, and 60 µM of the Ich-2-specific substrate Ac-Leu-Glu-Val-Asp-pNA is used instead of the ICE substrate Ac-Tyr-Val-Ala-Asp-pNA.

Row | Ki (ICE [1]) | IC50 (ICE [2]) | IC50 (Ich-2 enzyme) | SMILES | IC50 [3]
1 | 1600 nM | 14500 nM | 89000 nM | CC(CC(=O)NCCc1ccccc1)C(=O)NC(CC(=O)O)C(=O)CNS(=O)(=O)CCc1ccccc1 (stereo not shown) [Example 1, 3-(2-Methyl-3-phenethylcarbamoyl-propionylamino)-4-oxo-5-(2-phenylethanesulfonylamino)-pentanoic acid] | 82500 nM
2 | 15 nM | 540 nM |  | CC(C)[C@H](CC(=O)NCCOc1ccccc1)C(=O)NC(C=O)CC(=O)O (stereo partly shown) [Example 8] | 3750 nM
3 | 107 nM | 8.7 nM |  | CC(C)C(CC(=O)NCCCc1ccccc1)C(=O)NC(CC(=O)O)C(=O)COc1cc2ccccc2cc1-c1ncc[nH]1 (stereo not shown) [Example 14, 5-[3-(1H-Imidazol-2-yl)-naphthalen-2-yloxy]-3-{3-methyl-2-[(3-phenyl-propylcarbamoyl)-methyl]-butyrylamino}-4-oxo-pentanoic acid] | 19000 nM
4 | 133 nM | 1670 nM |  | CC(C)C(CC(=O)N(C)CCOc1ccccc1)C(=O)NC(C=O)CC(=O)O (stereo not shown) [Example 22, 3-(3-Methyl-2-{[methyl-(2-phenoxy-ethyl)-carbamoyl]-methyl}-butyrylamino)-4-oxo-butyric acid] | 19000 nM
5 | 51.1 nM | 1060 nM |  | CCOC1OC(=O)CC1NC(=O)C(CC(=O)NCCn1cnc2ccccc21)C(C)C (stereo not shown) [Example 35, N^4-(2-Benzoimidazol-1-yl-ethyl)-N^1-(2-ethoxy-5-oxo-tetrahydro-furan-3-yl)-2-isopropyl-succinamide] | 5500 nM
6 | 446 nM | 13200 nM |  | CCOC1OC(=O)CC1NC(=O)C(CC(=O)NCCOc1ccccc1)C(C)C (stereo not shown) [Example 39, N^1-(2-Ethoxy-5-oxo-tetrahydro-furan-3-yl)-2-isopropyl-N^4-(2-phenoxyethyl)-succinamide] | 5000 nM
7 | 35.4 nM | 1150 nM |  | CCOC1OC(=O)CC1NC(=O)C(CC(=O)NCCc1c[nH]c2cc(OC)ccc12)C(C)C (stereo not shown) [Example 40, N^1-(2-Ethoxy-5-oxo-tetrahydro-furan-3-yl)-2-isopropyl-N^4-[2-(6-methoxy-1H-indol-3-yl)-ethyl]-succinamide] | 2900 nM
8 | 409 nM | 13000 nM |  | CCOC1OC(=O)CC1NC(=O)C(CC(=O)NCCn1nnc2ccccc21)C(C)C (stereo not shown) [Example 41, N^4-(2-Benzotriazol-1-yl-ethyl)-N^1-(2-ethoxy-5-oxo-tetrahydro-furan-3-yl)-2-isopropyl-succinamide] | 17500 nM
9 | 191 nM | 1730 nM |  | CCOC1OC(=O)CC1NC(=O)C(CC(=O)NCCn1ncc2ccccc21)C(C)C (stereo not shown) [Example 42, N^1-(2-Ethoxy-5-oxo-tetrahydro-furan-3-yl)-N^4-(2-indazol-1-yl-ethyl)-2-isopropyl-succinamide] | 7500 nM
10 | 98.1 nM | 2280 nM |  | CCOC1OC(=O)CC1NC(=O)C(CC(=O)NCCNc1ccccc1)C(C)C (stereo not shown) [Example 43, N^1-(2-Ethoxy-5-oxo-tetrahydro-furan-3-yl)-2-isopropyl-N^4-(2-phenylamino-ethyl)-succinamide] | 7500 nM
11 | 47.5 nM | 1220 nM |  | CCOC1OC(=O)CC1NC(=O)C(CC(=O)NCCc1c[nH]c2cc(F)ccc12)C(C)C (stereo not shown) [Example 44, N^1-(2-Ethoxy-5-oxo-tetrahydro-furan-3-yl)-N^4-[2-(6-fluoro-1H-indol-3-yl)-ethyl]-2-isopropyl-succinamide] | 2500 nM
12 | 1930 nM | 112000 nM |  | CCOC1OC(=O)CC1NC(=O)C(CC(=O)NCCCc1cc(OC)c(OC)c(OC)c1)C(C)C (stereo not shown) [Example 47, N^1-(2-Ethoxy-5-oxo-tetrahydro-furan-3-yl)-2-isopropyl-N^4-[3-(3,4,5-trimethoxy-phenyl)-propyl]-succinamide] | 11000 nM
13 | 1010 nM | 59900 nM |  | CCOC1OC(=O)CC1NC(=O)C(CC(=O)NCCc1ccccc1)C(C)C (stereo not shown) [Example 48, N^1-(2-Ethoxy-5-oxo-tetrahydro-furan-3-yl)-2-isopropyl-N^4-[2-(phenyl)-ethyl]-succinamide] | 13500 nM
14 | 2150 nM | 123000 nM |  | CCOC1OC(=O)CC1NC(=O)C(CC(=O)NCCCCc1ccccc1)C(C)C (stereo not shown) [Example 49, N^1-(2-Ethoxy-5-oxo-tetrahydro-furan-3-yl)-2-isopropyl-N^4-[4-(phenyl)-butyl]-succinamide] | 
15 | 53.8 nM | 924 nM |  | CCOC1OC(=O)CC1NC(=O)C(CC(=O)NCCn1ccc2ccccc21)C(C)C (stereo not shown) [Example 50, N^1-(2-Ethoxy-5-oxo-tetrahydro-furan-3-yl)-N^4-(2-indol-1-yl-ethyl)-2-isopropyl-succinamide] | 2000 nM
16 | 259 nM | 15000 nM |  | CCOC1OC(=O)CC1NC(=O)[C@@H](CC(=O)NCCCc1ccccc1)C(C)C (stereo partly shown) [Example 51, N^1-(2-Ethoxy-5-oxo-tetrahydro-furan-3-yl)-2-isopropyl-N^4-[4-(phenyl)-propyl]-succinamide] | 16200 nM
17 | 18.5 nM | 486 nM |  | CCOC1OC(=O)CC1NC(=O)C(CC(=O)NCCc1c[nH]c2ccc(F)cc12)C(C)C (stereo not shown) [Example 52, N^1-(2-Ethoxy-5-oxo-tetrahydro-furan-3-yl)-N^4-[2-(5-fluoro-1H-indol-3-yl)-ethyl]-2-isopropyl-succinamide] | 750 nM
18 | 274 nM | 2560 nM |  | COc1cc(CCCNC(=O)C[C@H](C(=O)NC(C=O)CC(=O)O)C(C)C)cc(OC)c1OC (stereo partly shown) [Example 62, 3-(3-methyl-2-{[3-(3,4,5-trimethoxy-pheny)-propylcarbamoyl]-methyl}-butyrylamino)-4-oxo-butyric acid] | 23000 nM
19 | 6920 nM | 197000 nM |  | CCOC(=O)CC(C=O)NC(=O)C(CC(=O)NCCOc1ccccc1)C(C)C (stereo not shown) [Example 63, 3-{3-Methyl-2-[(2-phenoxy-ethylcarbamoyl)-methyl]-butyrylamino}-4-oxo-butyric acid ethyl ester] | 14500 nM
20 | > 100000 nM |  |  | CCOC(=O)CC(C#N)NC(=O)C(CC(=O)NCCOc1ccccc1)C(C)C (stereo not shown) [Example 64, 3-Cyano-3-{3-methyl-2-[(2-phenoxy-ethylcarbamoyl)-methyl]-butyrylamino}-propionic acid ethyl ester] | > 100000 nM
21 | 107000 nM |  |  | CC(C)C(CC(=O)NCCOc1ccccc1)C(=O)NC(C#N)CC(=O)O (stereo not shown) [Example 65, 3-Cyano-3-{3-methyl-2-[(2-phenoxy-ethylcarbamoyl)-methyl]-butyrylamino}-propionic acid] | > 100000 nM
